# Experimental data taken from PubChem BioAssay AID1204 (EPA DSSTox, 2008).
# Results filed as inconclusive are left out. Activity calls are given as the source filed them.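 Rule for the calls: active = relative estrogen receptor binding affinity above 1E-5, where estradiol scores 100; inconclusive = weak binder, under half inhibition at top dose, or affinity below 1E-5; inactive = no binding seen, affinity zero.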
# Test system: estrogen receptor (rat uterine cytosol)
# Assay: DSSTox (NCTRER) National Center for Toxicological Research Estrogen Receptor Binding Database;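 for relative binding affinity: ratio of estradiol IC50 over compound IC50 times 100 so estradiol equals 100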
# Details: rat uterine cytosol ER competitive binding, RBA; for relative binding affinity: stronger effect = higher value
# Description: Researchers within FDA's National Center for Toxicological Research (NCTR) generated a database of experimental estrogen receptor binding results for the express purpose of developing improved QSAR models to predict ER binding affinities.The NCTR ER database is a structurally diverse set of natural, synthetic, and environmental estrogens covering most known estrogenic classes and spanning a wide range of biological activity. It represents the largest published ER binding database of same-assay results generated in a single laboratory. […] Information on the percent purity and purchasing source for all chemicals are not included in the DSSTox SDF, but can be obtained from the original NCTR ER Source database and Main Citations listed below. The main citation (Fang et al., 2001) surveys the NCTR ER database from a chemical class based, structure-activity relationship (SAR) perspective. Qualitative SAR characteristics of the NCTR ER database are discussed and a set of general hierarchical rules for identifying potential estrogens are presented. The DSSTox NCTRER SDF augments the original NCTR ER database with chemical class and SAR information abstracted from Fang et al. (2001). The DSSTox SDF file supplements the measured ER relative binding affinity for each chemical (ER_RBA) with chemical class assignment to one of 6 major estrogenic classes further divided into 20 subclasses (ChemClass_ERB), along with a qualitative activity measure, ActivityCategory_ER_RBA. A brief narrative SAR rationale pertaining to ER RBA patterns observed by Fang et al. (2001) for each of the 20 subclasses within the database are provided in the field, ActivityCategory_Rationale_ChemClass_ERB. The original NCTR ER database, from which the expanded DSSTox NCTRER was formed, is contained within a larger Endocrine Disruptor Knowledge Base (EDKB) accessible from the FDA Source Website. That website provides online access to a relational database comprised of in vitro and in vivo experimental data for about 2000 natural and synthetic compounds, much of this extracted from the literature and representing testing in many laboratories. Data are included for biological assays that measure estrogenic and androgenic activity. Estrogenic endpoints include in vitro assays for estrogen receptor competitive binding affinity, cell proliferation, and reporter-gene assays, and in vivo assays for uterotrophic activity (i.e., uterine weight gain and vaginal cornification). The database also contains a bibliography of over 1200 citations, many of which include abstracts.
# Estrogen receptor relative binding affinity is determined using a competitive receptor binding assay as described in NCTRER Ref (Blair et al., 2000). Briefly, a chemical competes with radiolabeled E2 (i.e., estradiol) for binding to the ER in rat uterine cytosol and the concentration of chemical that causes 50% inhibition of E2 binding (i.e., IC50) is measured. The ER_RBA is calculated by dividing the IC50 of E2 (9X10-10M) by the IC50 of the competitor and multiplying by 100 (E2 RBA = 100). The validated assay tested 1nM E2 with concentrations of competitor ranging from 1nM to 1mM. The larger the ER_RBA values, the greater the binding affinity; ER_RBA > 100 means compound has greater binding affinity than natural ER ligand, E2. […] Activity Score is mapping of LOG_ER_RBA values (ER-RBA>1E-5), spanning activity range [MIN, MAX] onto Integer 20-100 Activity range, where 100 is highest potency and 20 is lowest active potency. If Activity Outcome is "active": Activity Score = 80 * INTEGER[(LOG_ER_RBA - MIN)/(MAX […] MIN)]. If Activity Outcome is "inconclusive" (i.e., slight binder): Activity Score = 5.
# [1] = ChemClass_ERB: Phytoestrogens Flavones
# [2] = ChemClass_ERB: Phenols Alkyloxy
# [3] = ChemClass_ERB: Diphenylmethanes Diphenolalkanes
# [4] = ChemClass_ERB: Phytoestrogens Flavanones
# [5] = ChemClass_ERB: Diphenylmethanes DDTs
# [6] = ChemClass_ERB: Steroids With aromatic A ring
# [7] = ChemClass_ERB: DES Hexestrol derivatives
# [8] = ChemClass_ERB: Phytoestrogens Mycoestrogens
# [9] = ChemClass_ERB: Steroids Without aromatic A ring
# [10] = ChemClass_ERB: Diphenylmethanes Benzophenones
# [11] = ChemClass_ERB: Phytoestrogens Chalconoids
smiles,measurement,setting,value
COC(=O)c1ccc(O)cc1,relative binding affinity,ChemClass_ERB: Phenols Parabens,0.00036%
OCCCCCCCCO,outcome,ChemClass_ERB: Misc,inactive
C[Si](C)(Cc1ccccc1)O[Si](C)(C)Cc1ccccc1,outcome,ChemClass_ERB: Misc,inactive
COc1ccc2[nH]cc(CCNC(C)=O)c2c1,outcome,ChemClass_ERB: Misc,inactive
C/C(=C(/C)c1ccc(O)cc1)c1ccc(O)cc1,relative binding affinity,ChemClass_ERB: DES Derivatives,14.4%
O=c1cc(-c2ccccc2)oc2ccc(O)cc12,relative binding affinity,[1],0.00038%
Oc1ccc(OCc2ccccc2)cc1,relative binding affinity,[2],0.00036%
O=C(O)c1ccccc1C(c1ccc(O)cc1)c1ccc(O)cc1,relative binding affinity,[3],0.00021%
Oc1ccc(/C=C/c2ccc(O)cc2)cc1,relative binding affinity,ChemClass_ERB: DES Derivatives,0.282%
CCNc1nc(Cl)nc(NCC)n1,outcome,ChemClass_ERB: Misc,inactive
Cc1cc(O)ccc1Cl,relative binding affinity,ChemClass_ERB: Phenols Alkyl,0.00041%
Oc1cc(O)c2c(c1)O[C@H](c1ccc(O)c(O)c1)[C@@H](O)C2,outcome,[4],inactive
CCc1cccc(O)c1,relative binding affinity,ChemClass_ERB: Phenols Alkyl,0.00013%
Clc1ccc(C(c2ccc(Cl)cc2)C(Cl)(Cl)Cl)cc1,outcome,[5],inactive
Cn1c(=O)c2c(ncn2C)n(C)c1=O,outcome,ChemClass_ERB: Misc,inactive
Oc1ccc(-c2cc(Cl)c(Cl)c(Cl)c2Cl)cc1,relative binding affinity,ChemClass_ERB: Biphenyls PCBs,0.23%
CCOC(=O)c1ccccc1C(=O)OCC,outcome,ChemClass_ERB: Misc,inactive
CN(C)c1ccc(Cc2ccc(N(C)C)cc2)cc1,outcome,ChemClass_ERB: Misc,inactive
CC(C)(c1ccccc1)c1ccc(O)cc1,relative binding affinity,[3],0.00501%
C#C[C@]1(O)CC[C@H]2[C@@H]3CCc4cc(O)ccc4[C@H]3[C@@H](OC)C[C@@]21C,relative binding affinity,[6],13.8%
O=C(C(=O)c1ccc(O)cc1O)c1ccc(O)cc1O,relative binding affinity,[7],0.209%
O=C1C=CC(=C(c2ccc(O)cc2)c2ccc(O)cc2)C=C1,relative binding affinity,[3],0.0316%
COc1ccc(-c2coc3cc(O)cc(O)c3c2=O)cc1,relative binding affinity,ChemClass_ERB: Phytoestrogens Isoflavones,0.0043%
COc1ccc(C(c2ccc(OC)cc2)C(Cl)(Cl)Cl)cc1,outcome,[5],inactive
Clc1ccc(C(c2ccc(Cl)cc2)C(Cl)Cl)cc1,outcome,[5],inactive
COc1cc(C=O)ccc1O,outcome,[2],inactive
ClC1=C(Cl)[C@]2(Cl)[C@@H]3[C@@H]4C[C@@H]([C@H]5O[C@@H]45)[C@@H]3[C@@]1(Cl)C2(Cl)Cl,outcome,ChemClass_ERB: Misc,inactive
O=C1C[C@@H](c2ccc(O)cc2)Oc2cc(O)cc(O)c21,relative binding affinity,[4],0.0074%
Nc1ccc(/C=C/c2ccc(N)cc2)cc1,outcome,ChemClass_ERB: Misc,inactive
C[C@@H]1CCC[C@H](O)CCC/C=C/c2cc(O)cc(O)c2C(=O)O1,relative binding affinity,[8],0.204%
C[C@H]1CCC[C@H](O)CCC/C=C/c2cc(O)cc(O)c2C(=O)O1,relative binding affinity,[8],42.7%
CC12CCC(CC1)C(C)(C)O2,outcome,ChemClass_ERB: Misc,inactive
C[C@]12CC[C@@H]3c4ccc(O)cc4C[C@@H](CCCCCCCCCS(=O)CCCC(F)(F)C(F)(F)F)[C@H]3[C@@H]1CC[C@@H]2O (some centres not stated),relative binding affinity,[6],37.1%
COc1ccc(C(=C(Cl)Cl)c2ccc(O)cc2)cc1,relative binding affinity,[5],0.234%
CCCCCCC=O,outcome,ChemClass_ERB: Misc,inactive
C[C@H]1CCC[C@@H](O)CCCCCc2cc(O)cc(O)c2C(=O)O1,relative binding affinity,[8],0.646%
CC/C(=C(/CC)c1ccc(OC)cc1)c1ccc(O)cc1,relative binding affinity,ChemClass_ERB: DES Derivatives,20.4%
Oc1ccc(CCc2ccc(O)cc2)cc1,relative binding affinity,[7],0.0363%
Clc1ccc(-c2ccccc2Cl)cc1,relative binding affinity,ChemClass_ERB: Biphenyls PCBs,0.00024%
CCCCCCCCOC(=O)c1ccccc1C(=O)OCCCCCCCC,outcome,ChemClass_ERB: Misc,inactive
O=C1CC(c2ccc(O)cc2)Oc2ccccc21 (configuration not stated),relative binding affinity,[4],0.00223%
ClC(Cl)=C(c1ccc(Cl)cc1)c1ccc(Cl)cc1,outcome,[5],inactive
C[C@]12CC[C@@H](O)C[C@@H]1CC[C@@H]1[C@@H]2CC[C@]2(C)[C@@H](O)CC[C@@H]12,relative binding affinity,[9],0.0021%
ClC1=C(Cl)C2(Cl)C3C(Cl)C=CC3C1(Cl)C2(Cl)Cl (configuration not stated),outcome,ChemClass_ERB: Misc,inactive
CC[C@@H]1c2ccc3cc(OC)ccc3c2CC[C@]1(C)C(=O)O,relative binding affinity,ChemClass_ERB: Misc,0.00181%
O=C(O)COc1cc(Cl)c(Cl)cc1Cl,outcome,ChemClass_ERB: Misc,inactive
CC/C(=C(/CC)c1ccc(O)cc1)c1ccc(O)cc1,relative binding affinity,ChemClass_ERB: DES Derivatives,398%
Oc1cccc(-c2ccccc2)c1,relative binding affinity,ChemClass_ERB: Biphenyls nonchlorinated,0.00036%
O=c1c(O)c(-c2ccc(O)c(O)c2)oc2cc(O)cc(O)c12,outcome,[1],inactive
Oc1c(Cl)cc(-c2cc(Cl)c(O)c(Cl)c2)cc1Cl,relative binding affinity,ChemClass_ERB: Biphenyls PCBs,0.00056%
CCC(C)c1ccccc1 (configuration not stated),outcome,ChemClass_ERB: Misc,inactive
C[C@]12CC[C@@H]3c4cc(O)c(O)cc4CC[C@H]3[C@@H]1CC[C@@H]2O,relative binding affinity,[6],29.5%
CNC(=O)Oc1cccc2ccccc12,outcome,ChemClass_ERB: Misc,inactive
C[C@]12CC[C@@H]3c4ccc(O)c(O)c4CC[C@H]3[C@@H]1CC[C@@H]2O,relative binding affinity,[6],66.1%
O=C(c1ccccc1)c1ccc(O)cc1O,relative binding affinity,[10],0.00245%
O=C(/C=C/c1ccc(O)cc1)c1ccc(O)cc1O,relative binding affinity,[11],0.055%
COc1ccc(C(c2ccc(O)cc2)C(Cl)(Cl)Cl)cc1 (configuration not stated),relative binding affinity,[5],0.129%
CC(C)(c1ccc(O)cc1)c1ccc(O)cc1,relative binding affinity,[3],0.0078%
O=c1c(O)c(-c2ccc(O)c(O)c2)oc2cc(O)ccc12,relative binding affinity,[1],0.00446%
C[C@H]1CCCC(=O)CCCCCc2cc(O)cc(O)c2C(=O)O1,relative binding affinity,[8],2.09%
O=C(/C=C/c1ccccc1)c1ccccc1,relative binding affinity,[11],0.00151%
Oc1ccccc1Cl,outcome,ChemClass_ERB: Phenols Alkyl,inactive
CCC(c1ccc(O)cc1)C(CC)c1cc(C)c(O)c(C)c1 (configuration not stated),relative binding affinity,[7],8.91%
ClC1=C(Cl)[C@]2(Cl)[C@@H]3[C@H]4C=CC(C4)[C@@H]3C1(Cl)C2(Cl)Cl,outcome,ChemClass_ERB: Misc,inactive
O=c1c(O)c(-c2ccc(O)cc2)oc2ccc(O)cc12,relative binding affinity,[1],0.447%
CCCCN(C)C(=O)CCCCCCCCCC[C@@H]1Cc2cc(O)ccc2[C@H]2CC[C@]3(C)[C@@H](O)CC[C@H]3[C@H]12,relative binding affinity,[6],14.4%
COc1ccc(C(=O)c2ccccc2)c(O)c1,outcome,[10],inactive
ClC1=C(Cl)[C@@]2(Cl)[C@@H]3[C@@H](Cl)[C@H](Cl)C[C@@H]3C1(Cl)C2(Cl)Cl,outcome,ChemClass_ERB: Misc,inactive
c1ccc2c(c1)ccc1c3ccccc3ccc21,outcome,ChemClass_ERB: Misc,inactive
CCC(c1ccc(O)c(O)c1)C(CC)c1ccc(O)c(O)c1 (configuration not stated),relative binding affinity,[7],15.5%
COc1ccc([C@@H]2CC(=O)c3c(O)cc(O)cc3O2)cc1O,outcome,[4],inactive
CC[C@H](CC[C@@H](C)[C@H]1CC[C@H]2[C@@H]3CC=C4C[C@@H](O)CC[C@]4(C)[C@H]3CC[C@]12C)C(C)C,outcome,[9],inactive
